Drawing on patent publication US20250296959A1, “B7-H3 TARGETING PEPTIDES AND CONSTRUCTS THEREOF” (Mariana Oncology Inc., priority 2024, published 2025), this text covers Kd for nine compounds.

In the test the target is T1, human 4lg B7-H3 (Homo sapiens, UniProt Q5ZPR3).
T1 sequence (Q5ZPR3 29-534): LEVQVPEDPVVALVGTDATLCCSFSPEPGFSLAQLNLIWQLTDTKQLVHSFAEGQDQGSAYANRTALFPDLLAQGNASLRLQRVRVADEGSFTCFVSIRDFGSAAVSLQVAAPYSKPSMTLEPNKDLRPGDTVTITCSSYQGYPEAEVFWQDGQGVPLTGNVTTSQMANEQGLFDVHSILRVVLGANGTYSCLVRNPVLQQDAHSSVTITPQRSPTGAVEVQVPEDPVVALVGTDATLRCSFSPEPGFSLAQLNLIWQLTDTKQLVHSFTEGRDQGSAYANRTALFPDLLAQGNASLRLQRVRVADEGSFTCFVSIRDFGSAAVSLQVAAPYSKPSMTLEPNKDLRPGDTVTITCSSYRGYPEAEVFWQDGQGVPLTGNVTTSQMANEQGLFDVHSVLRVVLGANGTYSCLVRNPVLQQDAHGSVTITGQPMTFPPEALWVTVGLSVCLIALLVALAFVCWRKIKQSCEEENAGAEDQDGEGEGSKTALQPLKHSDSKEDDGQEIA
Nature of the test: Affinity determination by surface plasmon resonance (SPR) to 4Ig B7-H3. The conditions noted are these: 4Ig B7-H3.

The mark [1] stands for this setting: SPR KD—25° C., 25° C. flow cell temperature.
The mark [2] stands for this setting: SPR KD—37° C., 37° C. flow cell temperature.

Molecules are shown by their SMILES. Like-named read-outs stand apart in the source and are kept apart here. Starred links: 1 amine or outer side, 2 acyl side, 3 side chain; linkers in the order of their positions; H or OH if unused. Positions of bridges follow the written chain, without caps; N, C: chain ends. Non-standard residues stand in square brackets, D forms with d. Residues, ends and D or L forms follow the SMILES beside them. Groups on a side chain read outwards from the residue. *: point of attachment. Ala(piperidin-4-yl) = O=C([C@H](CC1CCN([*:3])CC1)N[*:1])[*:2]; DOTA = O=C(O)CN1CCN(CC(=O)O)CCN(CC(=O)*)CCN(CC(=O)O)CC1; Trp(5-F) = N[C@@H](Cc1c[nH]c2ccc(F)cc12)C(=O)O; γGlu = O=C(O)[C@H](CCC(=O)[*:2])N[*:1]; 1Nal = N[C@@H](Cc1cccc2ccccc12)C(=O)O; Ala(4-THP) = N[C@@H](CC1CCOCC1)C(=O)O; Phe(2-Me) = Cc1ccccc1C[C@H](N)C(=O)O; Val(3-OH) = CC(C)(O)[C@H](N)C(=O)O; aIle = CC[C@@H](C)[C@H](N)C(=O)O; PEG4 = NCCOCCOCCOCCOCCC(=O)O; Tle = CC(C)(C)[C@H](N)C(=O)O; hLeu = CC(C)CC[C@H](N)C(=O)O; Pip = O=C(O)[C@@H]1CCCCN1; Nle = CCCC[C@H](N)C(=O)O; Dab = NCC[C@H](N)C(=O)O

For the compound `CCCC[C@H](NC(C)=O)C(=O)N[C@@H](Cc1ccc(O)cc1)C(=O)N[C@H]1CSSC[C@@H](C(=O)N[C@@H](Cc2c[nH]c3ccccc23)C(=O)N[C@@H](Cc2ccccc2)C(=O)N[C@H](C(=O)N[C@H](CCCCNC(=O)CN2CCN(CC(=O)O)CCN(CC(=O)O)CCN(CC(=O)O)CC2)C(N)=O)[C@@H](C)O)NC(=O)[C@H](Cc2ccc(O)cc2)NC(=O)[C@H](C(C)(C)C)NC(=O)[C@H](CC(=O)O)NC(=O)[C@H](Cc2ccc(O)cc2)NC(=O)[C@H](CCCCN)NC(=O)CNC(=O)[C@H](C(C)C)NC1=O` [compound 62, Ac-Nle-Y-C-V-G-K-Y-D-Tbg-Y-C-W-F-Thr-dLys(DOTA)-CONH2] (Ac-[Nle]YCVGKYD[Tle]YCWFT[dK](DOTA)-NH2; disulfide 3-11), under setting [1], the Kd was in the range of 100 to 300 nM.
`CC(=O)N[C@@H](CCC(C)C)C(=O)N[C@@H](Cc1ccc(O)cc1)C(=O)N[C@H]1CSSC[C@@H](C(=O)N[C@@H](Cc2c[nH]c3ccc(F)cc23)C(=O)N[C@@H](Cc2ccccc2)C(=O)N[C@H](C(=O)N[C@H](CCCCNC(=O)CN2CCN(CC(=O)O)CCN(CC(=O)O)CCN(CC(=O)O)CC2)C(=O)O)C(C)(C)O)NC(=O)[C@H](Cc2ccc(O)cc2)NC(=O)[C@H](C(C)C)NC(=O)[C@H](CC(=O)O)NC(=O)[C@H](CC2CCOCC2)NC(=O)[C@@H]2CCCCN2C(=O)CNC(=O)[C@H](C(C)(C)C)NC1=O` [compound 350, Ac-hLeu-Y-C-Tbg-G-Pip-ThpA-D-V-Y-C-5FW-F-hydroxyVal-dLys(DOTA)-COOH] (Ac-[hLeu]YC[Tle]G[Pip][Ala(4-THP)]DVYC[Trp(5-F)]F[Val(3-OH)][dK](DOTA)-OH; disulfide 3-11): the Kd under setting [2] was 10 to 100 nM.
Regarding `CC[C@@H](C)[C@@H]1NC(=O)[C@@H](NC(=O)[C@H](Cc2ccc(O)cc2)NC(=O)[C@H](CCC(C)C)NC(C)=O)CSSC[C@@H](C(=O)N[C@@H](Cc2c[nH]c3ccccc23)C(=O)N[C@@H](Cc2ccccc2)C(=O)N[C@H](C(=O)N[C@H](CCCCNC(=O)CN2CCN(CC(=O)O)CCN(CC(=O)O)CCN(CC(=O)O)CC2)C(N)=O)[C@@H](C)O)NC(=O)[C@H](Cc2ccc(O)cc2)NC(=O)[C@H](C(C)C)NC(=O)[C@H](CC(=O)O)NC(=O)[C@H](Cc2ccc(O)cc2)NC(=O)[C@H](CCCCN)NC(=O)CNC1=O` [compound 121, Ac-hLeu-Y-C-allolle-G-K-Y-D-V-Y-C-W-F-Thr-dLys(DOTA)-CONH2] (Ac-[hLeu]YC[aIle]GKYDVYCWFT[dK](DOTA)-NH2; disulfide 3-11), the Kd under setting [1] is 1 to 10 nM.
Consider `CC(=O)N[C@@H](CCC(C)C)C(=O)N[C@@H](Cc1ccc(O)cc1)C(=O)N[C@H]1CSSC[C@@H](C(=O)N[C@@H](Cc2c[nH]c3ccc(F)cc23)C(=O)N[C@@H](Cc2ccccc2C)C(=O)N[C@H](C(=O)N[C@H](CCCCNC(=O)CN2CCN(CC(=O)O)CCN(CC(=O)O)CCN(CC(=O)O)CC2)C(N)=O)[C@@H](C)O)NC(=O)[C@H](Cc2ccc(O)cc2)NC(=O)[C@H](C(C)C)NC(=O)[C@H](CC(=O)O)NC(=O)[C@H](Cc2ccc(O)cc2)NC(=O)[C@H](CCCCN)NC(=O)CNC(=O)[C@H](C(C)C)NC1=O` [compound 165, Ac-hLeu-Y-C-V-G-K-Y-D-V-Y-C-5FW-2MePhe-Thr-dLys(DOTA)-CONH2] (Ac-[hLeu]YCVGKYDVYC[Trp(5-F)][Phe(2-Me)]T[dK](DOTA)-NH2; disulfide 3-11), for which, under setting [1], the Kd lay within 1 to 10 nM.
Turning to `CC(=O)N[C@@H](CCC(C)C)C(=O)N[C@@H](Cc1ccc(O)cc1)C(=O)N[C@H]1CSSC[C@@H](C(=O)N[C@@H](Cc2c[nH]c3ccccc23)C(=O)N[C@@H](Cc2ccccc2)C(=O)N[C@H](C(=O)N[C@H](CCCCNC(=O)CN2CCN(CC(=O)O)CCN(CC(=O)O)CCN(CC(=O)O)CC2)C(N)=O)[C@@H](C)O)NC(=O)[C@H](Cc2ccc(O)cc2)NC(=O)[C@H](C(C)C)NC(=O)[C@H](CC(=O)O)NC(=O)[C@H](Cc2ccc(O)cc2)NC(=O)[C@H](CCCCN)NC(=O)CNC(=O)[C@H](C(C)C)NC1=O` [Cpd #67, Ac-hLeu-Y-C-V-G-K-Y-D-V-Y-C-W-F-Thr-dLys(DOTA)-CONH2] (Ac-[hLeu]YCVGKYDVYCWFT[dK](DOTA)-NH2; disulfide 3-11), the Kd under setting [1] lay within 1 to 10 nM.
On to `CC(=O)N[C@@H](CCC(C)C)C(=O)N[C@@H](Cc1ccc(O)cc1)C(=O)N[C@H]1CSSC[C@@H](C(=O)N[C@@H](Cc2c[nH]c3ccc(F)cc23)C(=O)N[C@@H](Cc2ccccc2)C(=O)N[C@H](C(=O)N[C@H](CCCCNC(=O)CN2CCN(CC(=O)O)CCN(CC(=O)O)CCN(CC(=O)O)CC2)C(=O)O)C(C)(C)O)NC(=O)[C@H](Cc2ccc(O)cc2)NC(=O)[C@H](C(C)C)NC(=O)[C@H](CC(=O)O)NC(=O)[C@H](CC2CCC(O)CC2)NC(=O)[C@H](CC2CCNCC2)NC(=O)CNC(=O)[C@H](C(C)(C)C)NC1=O` (single isomer, unassigned) [compound 480, Ac-hLeu-Y-C-Tbg-G-PipAla-4OHCha(pk2)-D-V-Y-C-5FW-F-hydroxyVal-dLys(DOTA)-COOH], for which, for the setting “read-out: SPR KD—37° C., 37° C. flow cell temperature”, the dissociation constant Kd was less than 1 nM.
Turning to `CC(=O)N[C@@H](CCC(C)C)C(=O)N[C@@H](Cc1ccc(O)cc1)C(=O)N[C@H]1CSSC[C@@H](C(=O)N[C@@H](Cc2cccc3ccccc23)C(=O)N[C@@H](Cc2ccccc2)C(=O)N2CCC[C@H]2C(=O)N[C@H](CCCCNC(=O)CC[C@H](NC(=O)CN2CCN(CC(=O)O)CCN(CC(=O)O)CCN(CC(=O)O)CC2)C(=O)O)C(N)=O)NC(=O)[C@H](Cc2ccc(O)cc2)NC(=O)[C@H](C(C)C)NC(=O)[C@H](CC(=O)O)NC(=O)[C@H](CC2CCOCC2)NC(=O)[C@H](CCCCN)NC(=O)CNC(=O)[C@H](C(C)(C)C)NC1=O` [compound 274, Ac-hLeu-Y-C-Tbg-G-K-ThpA-D-V-Y-C-1Nal-F-Pro-dLys(gE-DOTA)-CONH2] (Ac-[hLeu]YC[Tle]GK[Ala(4-THP)]DVYC[1Nal]FP[dK]([γGlu-DOTA])-NH2; disulfide 3-11), the Kd under setting [1] is less than 1 nM.
Take `CC(=O)N[C@@H](CCC(C)C)C(=O)N[C@@H](Cc1ccc(O)cc1)C(=O)N[C@H]1CSSC[C@@H](C(=O)N[C@@H](Cc2c[nH]c3ccc(F)cc23)C(=O)N[C@@H](Cc2ccccc2)C(=O)N[C@H](C(=O)N[C@H](CCC(=O)O)C(=O)O)C(C)(C)O)NC(=O)[C@H](Cc2ccc(O)cc2)NC(=O)[C@H](C(C)C)NC(=O)[C@H](CC(=O)O)NC(=O)[C@H](CC2CCN(C(=O)CCOCCOCCOCCOCCNC(=O)CN3CCN(CC(=O)O)CCN(CC(=O)O)CCN(CC(=O)O)CC3)CC2)NC(=O)[C@H](CC2CCNCC2)NC(=O)CNC(=O)[C@H](C(C)(C)C)NC1=O` [compound 448, Ac-hLeu-Y-C-Tbg-G-PipAla-Pip(PEG4-DOTA)Ala-D-V-Y-C-5FW-F-hydroxyVal-dGlu-COOH] (Ac-[hLeu]YC[Tle]G[Ala(piperidin-4-yl)][Ala(piperidin-4-yl)]([PEG4-DOTA])DVYC[Trp(5-F)]F[Val(3-OH)][dE]-OH; disulfide 3-11): under setting [2], the Kd was less than 1 nM.
Consider `CC(=O)N[C@@H](CCC(C)C)C(=O)N[C@@H](Cc1ccc(O)cc1)C(=O)N[C@H]1CSSC[C@@H](C(=O)N[C@@H](Cc2cccc3ccccc23)C(=O)N[C@@H](Cc2ccccc2)C(=O)N[C@H](C(=O)N[C@H](CCCCNC(=O)CN2CCN(CC(=O)O)CCN(CC(=O)O)CCN(CC(=O)O)CC2)C(=O)O)C(C)(C)O)NC(=O)[C@H](Cc2ccc(O)cc2)NC(=O)[C@H](C(C)C)NC(=O)[C@H](CC(=O)O)NC(=O)[C@H](CC2CCOCC2)NC(=O)[C@H](CCN)NC(=O)CNC(=O)[C@H](C(C)(C)C)NC1=O` [compound 435, Ac-hLeu-Y-C-Tbg-G-Dab-ThpA-D-V-Y-C-1Nal-F-hydroxyVal-dLys(DOTA)-COOH] (Ac-[hLeu]YC[Tle]G[Dab][Ala(4-THP)]DVYC[1Nal]F[Val(3-OH)][dK](DOTA)-OH; disulfide 3-11), for which the dissociation constant (Kd) under setting [2] is less than 1 nM.
